From patent US20250367299A1, “GAMMA-HYDRO[…] AND PROCESSES FOR MAKING AND USING THEM” (Zevra Therapeutics, Inc., priority 2022, published 2025)

Assay: Pharmacokinetics of GHB in plasma after oral gavage of GHB delivering compounds, with relative oral bioavailability vs sodium oxybate
Settings: vehicle water; for % AUC0-4 hr, relative oral bioavailability vs study comparator (sodium oxybate) / % Cmax, relative oral bioavailability vs study comparator (sodium oxybate): mean conjugate/mean comparator
[1] = dose equivalent to 80 mg/kg NaGHB
[2] = dose molar equivalent of 100 mg/kg NaGHB

Row | Compound | % AUC0-4 hr, relative oral bioavailability vs study comparator (sodium oxybate) [1] | % Cmax, relative oral bioavailability vs study comparator (sodium oxybate) [1] | % AUC0-4 hr, relative oral bioavailability vs study comparator (sodium oxybate) [2] | % Cmax, relative oral bioavailability vs study comparator (sodium oxybate) [2] | Tmax of GHB in plasma (oral gavage, dose molar equivalent of 100 mg/kg NaGHB)
1 | CCOC(=O)OCCCC(=O)O [O-(ethoxycarbonyl)-GHB, O-(Ethoxycarbonyl)-GHB] | 54% | 51% | – | – | –
2 | O=C1CCCO1 [GBL] | – | – | 27% | 70% | 15 min
